# From patent US20210315880A1, “METHODS OF TREATING VIRAL INFECTIONS USING INHIBITORS OF NUCLEOTIDE SYNTHESIS PATHWAYS” (priority 2020, published 2021)
# Where two headings read alike, the source gives them in different places.
# Legend:
# solid malignancies = details: cited from earlier work; for recommended dose for phase II studies: 1-h i.v. infusion every 3 weeks; for maximum tolerable dose: i.v. infusion every 3 weeks
# advanced lung cancer = details: weekly rapid iv injection, previously treated patients with advanced lung cancer; cited from earlier work
# [1] = in vivo
# RNA virus = test: Daily brequinar x 5 days in a subject infected with an RNA virus; format: in vivo; details: at first peak in brequinar level, once per day for five days
# Procedure: The mechanism by which administration of a DHODH inhibitor according to a daily dosing regimen inhibits viral replication is illustrated below. […] Throughout the course of the dosing regimen, levels of intracellular pyrimidines, such as uridine, and viral replication are measured.
# [2] = tested on: acute myeloid leukemia (AML); test: Effect of brequinar-containing composition on patient with AML; format: in vivo, human
# [3] = in vivo; remark: listed apart in the source
# [4] = Adverse events in subjects receiving brequinar intravenously once a week; details: Infection
# DHODH = DHODH (Homo sapiens, UniProt Q02127)
# Sequence of DHODH (Q02127 whole entry): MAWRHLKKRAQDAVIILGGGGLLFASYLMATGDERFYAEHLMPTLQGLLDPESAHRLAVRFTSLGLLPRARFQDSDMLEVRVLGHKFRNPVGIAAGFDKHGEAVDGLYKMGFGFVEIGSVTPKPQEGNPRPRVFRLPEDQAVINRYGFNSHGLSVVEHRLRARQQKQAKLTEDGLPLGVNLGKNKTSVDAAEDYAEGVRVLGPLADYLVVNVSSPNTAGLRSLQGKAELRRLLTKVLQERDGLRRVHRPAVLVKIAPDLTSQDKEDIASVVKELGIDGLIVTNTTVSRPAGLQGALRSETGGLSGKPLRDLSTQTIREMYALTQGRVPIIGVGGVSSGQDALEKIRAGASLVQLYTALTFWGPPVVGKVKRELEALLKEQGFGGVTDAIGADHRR
# SARS-CoV-2 = format: cell-based
# Vero E6 cells = details: remdesivir co-treated with brequinar
smiles,measurement,setting,value
Cc1c(-c2ccc(-c3ccccc3F)cc2)nc2ccc(F)cc2c1C(=O)O [Brequinar sodium],recommended dose for phase II studies,solid malignancies; good-risk patients,"1,800 mg/m^2"
same,maximum tolerable dose,solid malignancies; good-risk patients,"2,250 mg/m^2"
same,tumor response,solid malignancies; patient with papillary carcinoma of the thyroid,One mixed response
same,recommended dose for phase II studies,solid malignancies; poor-risk patients,"1,200 mg/m^2"
same,maximum tolerable dose,solid malignancies; poor-risk patients,"1,500 mg/m^2"
"NC(=O)c1[nH]nc([C@@H]2O[C@H](CO)[C@@H](O)[C@H]2O)c1O [PYR, 5-[(2S,3R,4S,5R)-3,4-dihydroxy-5-(hydroxymethyl)oxolan-2-yl]-4-hydroxy-1H-pyrazole-3-carboxamide]",therapeutic value,advanced lung cancer,has little therapeutic value as a single agent
"Cc1c(-c2ccc(-c3ccccc3F)cc2)nc2ccc(F)cc2c1C(=O)O [brequinar, 6-fluoro-2-(2′-fluoro-1,1′ biphenyl-4-yl)-3-methyl-4-quinoline carboxylic acid]",oral versus IV formulations,[1],oral and IV formulations are equivalent
same,intracellular pyrimidine pool,RNA virus,dramatic decrease in the intracellular pyrimidine pool
same,viral replication,RNA virus,dramatic reduction in viral replication
same,response,[2]; first patient with AML (Example 12),"positive response as indicated by reduction in bone marrow blast count, improvement of extramedullary hematopoiesis, and shift to more differentiation in peripheral blasts"
same,response,[2]; patient with AML of Example 14,positive response as indicated by a trend towards differentiation of their peripheral blasts
same,response,[2]; second patient with AML (Example 13),"positive response to the disease with a lowering of peripheral blasts and increase in absolute neutrophil count, along with greater differentiation of peripheral blasts"
same,effect of repeated doses,[3],No cumulative effective of repeated doses
same,No. of Patients,[4],7
same,"No. of Patients Experiencing the AE, 5 y Max Grade 1",[4],4
same,"No. of Patients Experiencing the AE, 5 y Max Grade 2",[4],3
same,"No. of Patients Experiencing the AE, 5 y Max Grade 3",[4],0
same,"No. of Patients Experiencing the AE, 5 y Max Grade 4",[4],0
same,Percent,[4],3.3%
same,concentrations at which DHODH is almost completely inhibited,DHODH,> 1 µM
CCC(CC)COC(=O)[C@H](C)N[P@](=O)(OC[C@H]1O[C@@](C#N)(c2ccc3c(N)ncnn23)[C@H](O)[C@@H]1O)Oc1ccccc1 [remdesivir],Min Data,SARS-CoV-2; brequinar 0.000 μM,−11%
same,Min Data,SARS-CoV-2; brequinar 0.078 μM,−1.9%
same,cytotoxicity of co-treatment,Vero E6 cells,No enhanced cytotoxicity
